The values below are quoted from earlier work in article PMC3480965 (Molecular pharmaceutics, 2012).

The target in data set [1] is melanocortin-1 (MC1) receptor (Mus musculus, UniProt Q01727). As to conditions: read-out: MC1 receptor binding affinity (IC50); B16/F1 melanoma cells.
A further data set concerns melanoma. The following applies: in vivo, 2 h.

Sequence of melanocortin-1 (MC1) receptor (Q01727 whole entry): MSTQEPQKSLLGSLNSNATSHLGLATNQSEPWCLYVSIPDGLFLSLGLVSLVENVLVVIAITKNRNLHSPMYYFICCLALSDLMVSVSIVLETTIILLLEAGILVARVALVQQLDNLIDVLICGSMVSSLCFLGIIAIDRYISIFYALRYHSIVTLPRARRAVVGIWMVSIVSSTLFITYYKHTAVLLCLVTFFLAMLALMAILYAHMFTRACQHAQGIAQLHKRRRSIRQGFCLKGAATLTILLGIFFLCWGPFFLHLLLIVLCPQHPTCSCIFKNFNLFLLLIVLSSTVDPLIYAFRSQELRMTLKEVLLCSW

As usually defined, the IC50 is the midpoint of a concentration-inhibition curve. For “1,4,7,10-tetraazacyclononane-1,4,7,10-tetraacetic acid-GGNle-CycMSHhex (GGXDHFRWK; X3 = norleucine (Nle); D-Phe6; lactam bridge between Asp4 and Lys9 side chains (cyclic); C-terminal amide; 64Cu-labelled for biod) [DOTA-GGNle-CycMSHhex]”, the concentration for half-maximal inhibition (IC50) in data set [1] was 2.1 nM.

As for “Ac-Nle-Asp-His-D-Phe-Arg-Trp-Gly-Lys(^64Cu-DOTA)-NH2 [^64Cu-DOTA-NAPamide]”, in the data set with melanoma, the Liver uptake is recorded as 11.0 % ID/g and the Melanoma uptake is listed as 4.63 ± 0.45 % ID/g.

For the substance “^64Cu-DOTA-Re-[Cys[3],[4],[10], D-Phe^7, Arg^11]a-MSH3–13 [^64Cu-DOTA-ReCCMSH(Arg^11)]”, in the data set with melanoma, the Liver uptake is recorded as 7.3 % ID/g and the Melanoma uptake is listed as 8.80 ± 1.70 % ID/g.
